{
  "source": "paper PMC8075810",
  "about": "(Cell Chemical Biology, 2021)",
  "key": {"SCoV2 PLpro [1]": {"target": "T1, SCoV2 PLpro (Severe acute respiratory syndrome coronavirus 2, UniProt P0DTD1)", "experiment": "biochemical", "format": "biochemical, SARS-CoV-2"}, "SCoV2 PLpro [2]": {"target": "T1, SCoV2 PLpro", "format": "cell-based, SARS-CoV-2", "details": "10 μM, western blot"}},
  "data": [
    {"molecule": "vitamin B12", "values": [
      {"measurement": "inhibition of SCoV2 PLpro", "setting": "SCoV2 PLpro [1]; 10 µM", "value": "over 50%"}
    ]},
    {"molecule": "C[C@H](c1cccc2ccccc12)N1CCC(C(=O)NCc2cc(F)cc(NC(=O)N3CCN(C)CC3)c2)CC1", "note": "[Inhibitor 19, (R)-N-(3-fluoro-5-((1-(1-(naphthalen-1-yl)ethyl)piperidine-4-carboxamido)methyl)phenyl)-4-methylpiperazine-1-carboxamide]", "values": [
      {"measurement": "inhibition of SCoV2 PLpro (nsp1-nsp2 cleavage) in 293T cells", "setting": "SCoV2 PLpro [2]", "value": "significantly inhibited"}
    ]},
    {"molecule": "O=C(O)C(=O)c1cn(Cc2ccccc2)c2ccc(-c3ccc(OC(F)(F)F)cc3)cc12", "note": "[tiplaxtinin]", "values": [
      {"measurement": "inhibition of SCoV2 PLpro", "setting": "SCoV2 PLpro [1]; 10 μM compound, probe 7", "value": "over 50%"}
    ]},
    {"molecule": "CC(C)c1cc(C(C)C)c(CC(=O)NS(=O)(=O)Oc2c(C(C)C)cccc2C(C)C)c(C(C)C)c1", "note": "[avasimibe]", "values": [
      {"measurement": "inhibition at 10 µM", "setting": "SCoV2 PLpro [1]; read-out: inhibition of SCoV2 PLpro", "value": "> 50", "unit": "%"}
    ]}
  ]
}
